Measurements reported in paper PMC10354055, “An optimized Nurr1 agonist provides disease-modifying effects in Parkinson’s disease models” (Nature Communications, 2023).
Values joined by “and” are separate entries in the source; they are usually repeats but may differ in a detail not shown here. Equal entries are not always repeated.

Assays:
Nurr1-LBD = Nurr1-LBD (Homo sapiens, UniProt P43354); assay: [3H]-CQ radioligand competition binding assay
Protocol: Saturation and competition assays were performed as previously described. For saturation assay, 0.2 µM of Nurr1-LBD and 125-10,000 nM of [^3H]-CQ were incubated in binding buffer (20 mM sodium acetate buffer (pH 5.2)) at 4 °C overnight. […] Assay mixtures were applied to GF/B filters (Brandel Inc.) to capture Nurr1-LBD bounded ligands. […] All graphs and IC50 values were generated using the non-linear regression program in GraphPad Prism version 8.0.2.

MPTP-induced male mice [1] = assay: Dopamine ELISA in SN and STR, MPTP-induced mice; assay type: in vivo, mouse; settings: for DA: individual animals
Protocol: (§1) MPTP (Sigma-Aldrich) was intraperitoneally (i.p.) injected (30 mg/kg) for 5 days (Day 1-5). […] To test dyskinetic involuntary behavior, an L-DOPA injected group was included, which received 50 mg/kg of L-DOPA and 15 mg/kg of benserazide (Sigma-Aldrich) (i.p.) for 16 days (Day 1–16). All compounds were administered 6 h post-MPTP injection to avoid any effect of compounds on the MPTP metabolism in the brain. Motor and non-motor related behavior tests were performed on the following days as described in Fig. 4a in an assessor- and observer-blinded fashion. Pre-training and baseline setup for motor-related behaviors were performed 3 days prior to the injections. Mice were sacrificed and subjected to immunohistochemistry. Mice were housed at the Animal Care Facilities of McLean Hospital under a 12-h light/12-h dark cycle, ambient temperature and humidity. Animals were handled in accordance with McLean Hospital’s Institutional Animal Care and Use Committee (Protocol #: 2015N000002) and followed National Institutes of Health guidelines.
For MPTP-induced mice, the left hemisphere of each group (n = 5) was used for analysis and compared to the vehicle-treated group (VEH). For AAV-αSyn-injected mouse model, the viral vector injected side (left hemisphere; ipsilateral) of each group (n = 3) was compared to the non-injected side (right hemisphere; contralateral).

MN9D cells = assay: Cytotoxicity, LDH release, MPP+-treated MN9D cells; assay type: cell-based, mouse
Protocol: Cells were transfected with Nurr1 subcloned into pcDNA3.1 vector[23] for Nurr1 overexpression (OE). […] Nurr1 OE or KD by transfection was analyzed by Western blot.
Cellular oxidative stress was detected using the DCFDA Cellular ROS Assay Kit (Abcam) according to the manufacturer’s protocol. Briefly, cells seeded in black clear bottom 96 well plate were stained with DCFDA solution (20 µM) for 45 min at 37 °C. […] Cytotoxicity was determined by measuring lactate dehydrogenase (LDH) release into the culture medium using a LDH cytotoxicity detection kit (Roche)[33]. Absorbance was measured at 490 nm with a microplate reader and cytotoxicity was calculated as a percentage (%) relative to 1% TritonX-100 control. Cell viability was determined using 3-(4,5-dimethylthiazol-2-yl)-2,5-diphenyltetrazolium bromide (MTT) as previously described. Briefly, cells were incubated with 5 mg/ml of MTT (Sigma-Aldrich) solution for 3.5 h at 37 °C. MTT formazan crystals were dissolved in 10 times the volume of MTT solvent (4 mM HCl and 0.1% Nonidet P-40 in isopropanol) and the absorbance from the generated blue formazan was measured at 570 nm after 15 min incubation at room temperature. Cell viability was calculated as a percentage (%) of MTT reduction relative to vehicle control.

N27-A cells = assay: Cell viability, MTT reduction, MPP+-treated N27-A cells; assay type: cell-based, rat; settings: Fig. 2a, CQ 100 µM, 4A7C-301 1 µM
[2] = system: AAV-αSyn-induced male mice; assay: Rotarod, AAV-αSyn-induced PD model mice; assay type: in vivo, mouse; settings: αSynWT and αSynA53T mice; CQ 40, 4A7C-301 5 mg/kg/day i.p.
Description: Adeno-associated viruses (AAVs) expressing GFP only or αSyn (wild-type or A53T) were kindly provided by Dr. Yoon Seong Kim from the University of Central Florida. Recombinant AAV vectors were produced using modified pAAV-IRES-hrGFP (Agilent) to express wild-type and mutant human αSyn under control of the CMV promoter. Viral particles (AAV2) were produced at the University of Iowa Viral Vector Core according to standard operating procedures (https://medicine.uiowa.edu/vectorcore/). […] AAV vectors were delivered into the substantia nigra unilaterally by stereotaxic surgery.
(§2) Mice were pre-trained on an automated 5-lane rotarod unit (10 rpm, 3 min) for 2 days and the baseline was measured (10 rpm, 90 sec) before the rotarod test (3 days before the MPTP injection or the first rotarod test at week 2). Rotarod measurements were performed using an accelerating protocol, accelerated smoothly from 2 to 30 rpm for 5 min. Time on the rotating rod was measured automatically by placing a trip switch under the floor beneath the rotating drum.

Nurr1 protein = Nurr1 protein level, Western blot, MN9D cells with MPP+ or αSyn overexpression; assay type: cell-based, mouse; settings: for Relative Nurr1 expression (% of Cont.): Fig. S4g; for Relative Nurr1 expression (% of +GFP Basal): Fig. S4i
Protocol: Experiments were confirmed by duplicate measurements of the same sample. Quantification of immunoreactive bands was performed using ImageJ software (NIH, Bethesda, MD, USA) and expressed as a relative ratio against β-actin.
Lenti-GFP, -αSyn^WT, and -αSyn^A53T viruses were generated separately by co-transfecting each shuttle plasmid with lentivirus packaging plasmids into HEK293T cells using lipofectamine 2000 (Invitrogen). Briefly, 2 μg each FUW inducible shuttle plasmid, 2 μg FUW-rtTA, 2 μg psPax2 and 1.5 μg MD2.G were mixed and transfected into HEK293T cells. After 48 h, viral supernatants were collected and centrifuged at 1000g for 10 min, and subsequently filtered through a 0.45 μm filter. Lentiviruses were transduced into MN9D cells with 8 μg/ml of polybrene and the viral supernatant was removed and replaced with fresh medium a day after transduction.

MPTP-induced male mice [3] = assay: Rotarod, sub-chronic MPTP-induced PD model mice; assay type: in vivo, mouse
Protocol: as §1, §2

Sequence of Nurr1-LBD (P43354 360-595 limits assumed, species assumed): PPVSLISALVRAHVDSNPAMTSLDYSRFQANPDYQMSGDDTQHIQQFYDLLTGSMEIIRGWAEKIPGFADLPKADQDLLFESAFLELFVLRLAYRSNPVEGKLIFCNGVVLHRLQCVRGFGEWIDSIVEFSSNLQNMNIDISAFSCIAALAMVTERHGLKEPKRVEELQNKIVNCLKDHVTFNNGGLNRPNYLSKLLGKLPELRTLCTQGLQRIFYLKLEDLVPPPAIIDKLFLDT

SMILES: CCN1CCN(c2cc(N3CCN(CC)CC3)nc(NCCNc3ccnc4cc(Cl)ccc34)n2)CC1 [4A7C-301, N^1-(4,6-bis(4-ethylpiperazin-1-yl)pyrimidin-2-yl)-N^2-(7-chloroquinolin-4-yl)ethane-1,2-diamine]
- % of Specific binding (Nurr1-LBD; Fig. 1h, competitor conc. 0.0001 (µM)): 97.5500% and 87.3600% and 114.0900%
- % of Specific binding (Nurr1-LBD; Fig. 1h, competitor conc. 0.001 (µM)): 93.3315% and 98.5361% and 111.1323%
- % of Specific binding (Nurr1-LBD; Fig. 1h, competitor conc. 0.01 (µM)): 98.5241% and 100.1201% and 98.1018%
- % of Specific binding (Nurr1-LBD; Fig. 1h, competitor conc. 0.1 (µM)): 94.8655% and 104.0393% and 99.1513%
- % of Specific binding (Nurr1-LBD; Fig. 1h, competitor conc. 1 (µM)): 96.7105% and 99.4183% and 101.5113%
- % of Specific binding (Nurr1-LBD; Fig. 1h, competitor conc. 10 (µM)): 93.5241% and 103.1201% and 98.1018%
- % of Specific binding (Nurr1-LBD; Fig. 1h, competitor conc. 100 (µM)): 102.0642% and 94.9839% and 98.3253%
- % of Specific binding (Nurr1-LBD; Fig. 1h, competitor conc. 1000 (µM)): 95.6857% and 99.8470% and 98.1514%
- % of Specific binding (Nurr1-LBD; Fig. 1h, competitor conc. 10000 (µM)): 97.6484% and 92.6051% and 102.8033%
- % of Specific binding (Nurr1-LBD; Fig. 1h, competitor conc. 100000 (µM)): 94.7542% and 97.7292% and 100.6669%
- % of Specific binding (Nurr1-LBD; Fig. 1h, competitor conc. 1000000 (µM)): 94.8500% and 98.0088% and 99.1887%
- IC50 (Nurr1-LBD; competition with [3H]-CQ, Fig. 1h): 48.2 nM and 50 nM
- binding affinity for Nurr1-LBD relative to CQ (Nurr1-LBD; from radioligand and TR-FRET IC50s): 20 fold and ~ 20 fold
- DA levels in the SN (in words) (MPTP-induced male mice [1]): significantly restored
- DA levels in the STR (in words) (MPTP-induced male mice [1]): significantly restored
- DA (MPTP-induced male mice [1]; Supplementary Figure S10b): 62.619 pg/mL and 53.876 pg/mL and 49.863 pg/mL and 62.002 pg/mL and 54.392 pg/mL
- DA (MPTP-induced male mice [1]; Supplementary Figure S10c): 384.546 pg/mL and 562.262 pg/mL and 361.203 pg/mL and 377.923 pg/mL and 404.591 pg/mL
- LDH release (%) (MN9D cells; Fig. S1g, with MPP+, conc. 0.1 µM, replicates): 41.8716% and 42.3575% and 42.6815%
- LDH release (%) (MN9D cells; Fig. S1g, with MPP+, conc. 0.5 µM, replicates): 39.0371% and 39.604% and 39.28%
- LDH release (%) (MN9D cells; Fig. S1g, with MPP+, conc. 1 µM, replicates): 37.6198% and 37.0529% and 37.2958%
- LDH release (%) (MN9D cells; Fig. S1g, with MPP+, conc. 5 µM, replicates): 37.2149% and 37.0124% and 37.6198%
- LDH release (%) (MN9D cells; Fig. S1g, with MPP+, conc. 10 µM, replicates): 36.486% and 37.8628% and 37.3363%
- LDH release (%) (MN9D cells; Fig. S3f, MPP+, Control, CQ 100 µM, 4A7C-301 1 µM): 38.8915% and 36.4082% and 36.6047% and 41.8443%
- LDH release (%) (MN9D cells; Fig. S3f, MPP+, Nurr1 KD, CQ 100 µM, 4A7C-301 1 µM): 55.7866% and 55.7395% and 56.0212% and 56.0866%
- LDH release (%) (MN9D cells; Fig. S3f, MPP+, Nurr1 OE, CQ 100 µM, 4A7C-301 1 µM): 24.7388% and 23.725% and 24.6956% and 22.8802%
- LDH release (%) (MN9D cells; Fig. S3d, with MPP+, 0.1 µM): 43.0575% and 41.9759% and 41.8986%
- LDH release (%) (MN9D cells; Fig. S3d, with MPP+, 0.5 µM): 40.7398% and 41.2806% and 41.0489%
- LDH release (%) (MN9D cells; Fig. S3d, with MPP+, 1 µM): 39.0016% and 38.0746% and 37.5724%
- LDH release (%) (MN9D cells; Fig. S3d, with MPP+, 5 µM): 38.2677% and 37.7656% and 37.302%
- LDH release (%) (MN9D cells; Fig. S3d, with MPP+, 10 µM): 35.5638% and 36.4136% and 37.4179%
- concentration of maximal efficiency, times lower than CQ (MN9D cells; MN9D cells, MPP+-induced cytotoxicity): ~ 20 times
- MTT reduction (%) (N27-A cells; Control): 65.2632% and 62.1053% and 64.2105% and 61.0526%
- MTT reduction (%) (N27-A cells; Nurr1 KD): 30.9278% and 29.8969% and 34.0206%
- MTT reduction (%) (N27-A cells; Nurr1 OE): 86.5979% and 95.8763% and 87.6289% and 83.5052%
- motor deficits, rotarod (latency to fall) (in words) [2]: improved motor deficits
- Relative Nurr1 expression (% of Cont.) (Nurr1 protein; w/ MPP+): 99.091 % of Cont. and 100.486 % of Cont. and 100.693 % of Cont.
- Relative Nurr1 expression (% of Cont.) (Nurr1 protein; w/o MPP+): 101.351 % of Cont. and 99.92 % of Cont. and 104.55 % of Cont.
- Relative Nurr1 expression (% of +GFP Basal) (Nurr1 protein; + GFP): 98.029 % of +GFP Basal and 101.483 % of +GFP Basal and 98.211 % of +GFP Basal
- Relative Nurr1 expression (% of +GFP Basal) (Nurr1 protein; + αSynA53T): 84.572 % of +GFP Basal and 86.142 % of +GFP Basal and 86.409 % of +GFP Basal
- Relative Nurr1 expression (% of +GFP Basal) (Nurr1 protein; + αSynWT): 92.781 % of +GFP Basal and 95.357 % of +GFP Basal and 90.953 % of +GFP Basal
- Nurr1 protein levels (in words) (Nurr1 protein; against MPP+ and αSynWT overexpression): significantly restored
- Nurr1 protein levels (in words) (Nurr1 protein; against αSynA53T overexpression): maintained
- motor function, rotarod (in words) (MPTP-induced male mice [3]; CQ 40, 4A7C-301 5, L-DOPA 50 mg/kg/day, i.p., 16 days): significantly rescued
- Latency to fall (MPTP-induced male mice [3]; Figure 4b, MPTP-induced mice, individual animal values): 133.23 s and 202.2 s and 133.57 s and 139.3 s and 213.2 s and 211.5 s and 122.9 s and 231.93 s
